Measurements as given in PubChem BioAssay (NCI).
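48-hour exposure; five concentrations; linearly interpolated endpoints. GI50 is the concentration that inhibits growth by half. TGI is the concentration that stops growth completely.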

Assays:
Assay in all cases: NCI-60 cell line screen, 48 h
[1] = system: KM12 colon
[2] = system: NCI/ADR-RES ovarian
[3] = system: OVCAR-3 ovarian
[4] = system: SF-539 CNS
[5] = system: UACC-62 melanoma
[6] = system: UO-31 renal
[7] = system: A498 renal
[8] = system: IGROV1 ovarian
[9] = system: NCI-H226 lung
[10] = system: SK-MEL-2 melanoma
[11] = system: SNB-19 CNS

Structure (SMILES) | GI50 [1] | TGI [1] | GI50 [2] | TGI [2] | GI50 [3] | TGI [3] | GI50 [4] | TGI [4] | GI50 [5] | TGI [5] | GI50 [6] | TGI [6] | TGI [7] | TGI [8] | TGI [9] | TGI [10] | TGI [11] | GI50 [8] | GI50 [10] | GI50 [11]
COc1ccc(-c2ccc(-c3ccc(C(=N)N)nc3)s2)cc1 | 1.81 µM | 3.3 µM | 1.94 µM | 3.75 µM | 1.82 µM | 3.27 µM | 1.73 µM | 3.17 µM | 1.81 µM | 3.38 µM | 1.64 µM | 3.08 µM |  |  |  |  |  |  |  | 
O=C(NO)c1ccc([N+](=O)[O-])cc1 |  | > 100 µM |  |  |  | > 100 µM |  | > 100 µM |  | 50.5 µM |  | > 100 µM | 85.4 µM | > 100 µM | > 100 µM | > 100 µM | > 100 µM |  |  | 
N#CC(C#N)=CN1CCN(C(=O)c2ccco2)C1=S | 4.12 µM | 32.2 µM |  |  | 11.2 µM | > 100 µM | 2.48 µM | 7.55 µM | 8.81 µM | 25.4 µM | 10.5 µM | 30.1 µM |  | 38.9 µM |  | 12.8 µM | 82 µM | 6.61 µM | 4.28 µM | 38.7 µM
O=C(O)C(=C\c1ccc2c(c1)OCO2)/C(=C/c1ccc2c(c1)OCO2)C(=O)O |  | > 100 µM |  | > 100 µM |  | > 100 µM |  |  |  | > 100 µM |  | > 100 µM | > 100 µM | > 100 µM | > 100 µM | > 100 µM | > 100 µM |  |  | 
Cc1c(C#N)c2nnn(C)c(=O)n2c1-c1ccccc1 |  | > 100 µM |  | > 100 µM |  | > 100 µM |  | > 100 µM |  | > 100 µM |  | > 100 µM | > 100 µM |  | > 100 µM | > 100 µM | > 100 µM |  |  | 
